Legend:
Format in all cases: cell-based, human
[1] = test system: PC-3 cells; assay: APO LOGIX Carboxyfluorescein Caspase 9 Detection Kit in PC-3 cells
Source text: (§1) In a still further apoptotic assay, apoptosis can be measured by the APO LOGIX™ Carboxyfluorescein Caspase 9 Detection Kit. The APO LOGIX™ Carboxyfluorescein Caspase 9 Detection Kit uses a cell permeable carboxyfluorescein labeled caspase inhibitor, which binds covalently to active caspases 9. Caspase 9 is involved in initiating apoptosis through the mitochondrial pathway (Budihardjo I., et al. 1999). Cells that contain bound inhibitor are detected by an increase in fluorescence when samples are analyzed by flow cytometry.
PC-3 cells (ATCC #CRL-1435) were derived from a prostate adenocarcinoma (Kaighn et al., 1979). They were maintained in RPMI 1640 medium (Gibco) supplemented with 10% fetal bovine serum (Cansera), 100 U/mL penicillin, and 100 μg/mL streptomycin and 0.25 μg/mL amphotericin B. Cultures were maintained in medium at 37° C. with 5% CO2 and 100% relative humidity.
PC-3 cells were seeded in tissue culture flasks with regular growth medium and maintained under normal conditions. After cells had adhered, the tissue culture medium was replaced with medium containing PC1448 dissolved in DMSO with the final concentration of DMSO not exceeding 0.05%. For each assay, a flask of untreated cells was grown in media containing the same amount of DMSO as in the PC1448 treated samples. Following incubation under normal growth conditions for the specified time, cells were washed once with cold phosphate-buffered saline (PBS) (137 mM NaCl, 2.7 mM KCl, 4.3 mM Na2HPO4.7H2O, 1.4 mM KH2PO4) and harvested as previously described. Assays were carried out according to instructions given in kits. All Flow Cytometry was performed using a Coulter Epics XL (Beckman).

[2] = test system: CRL-2522 cells; assay: APO LOGIX Carboxyfluorescein Caspase 9 Detection Kit in CRL-2522 cells
Source text: as §1
CRL-2522 cells, acquired from ATCC, (American Type Culture Collection) are normal fibroblast cells that originated from human foreskin. CRL-2522 cells were maintained in RPMI 1640 medium (Gibco) supplemented with 10% fetal bovine serum (Cansera), 100 U/mL penicillin, 100 μg/mL streptomycin and 0.25 μg/mL amphotericin B. Cultures were maintained in medium at 37° C. with 5% CO2 and 100% relative humidity.
CRL-2522 cells were treated with PC1448 and assayed for apoptosis as described above for PC-3 cells.

[3] = test system: WiDr colon cancer cells; assay: Dual Sensor: MitoCasp Assay in WiDr colon cancer cells; conditions: 2.5 μM, 5.0 μM, 10 μM, and 15 μM, 24 hours
Source text: Techniques to assay enzymatic and signaling processes involved in apoptosis have been developed as standard protocols. One example of an early step in apoptosis, is the release of cytochrome C from mitochondria and the activation of caspase-3. Induction of the caspases (a series of cytosolic proteases) is one of the most consistently observed features of apoptosis. Caspases are a family of proteolytic enzymes that transmit the apoptotic signal using a proteolytic cascade. […] Caspases 3 and 7 are effector caspases, central to the caspase cascade pathways. In particular, caspase-3 plays a central role in the process. When caspases are activated, they cleave target proteins; one of the most important of these is poly-(ADP-ribose) polymerase (PARP), which is a protein located in the nucleus. […] Collapse of the mitochondrial membrane potential during apoptosis prevents the dye from accumulating in the mitochondria resulting in a decrease in fluorescent intensity that can be detected with flow cytometry. […] In this assay, caspase 3/7 activity is detected using a cell permeable carboxyfluorescein labeled caspase inhibitor, which binds covalently to active caspases 3 and 7. Cells that contain bound inhibitor are detected by an increase in fluorescence when samples are analyzed by flow cytometry. […]

[4] = test system: CRL-2522 (normal fibroblast) cells; assay: Hoechst 33342 staining of CRL-2522 cells; conditions: 7 μM PC1448, 24 hours
Source text: Apoptosis can also be measured by Hoechst 33342 Staining. Cells undergoing apoptosis show several characteristic morphological changes. These changes include cell shrinkage and rounding, and the formation of cytoplasmic blebs on the cell surface. Nuclear material condenses along the edge of the nucleus followed by complete condensation and nuclear fragmentation (Hacker, G., 2000). Apoptotic cells eventually break up into membrane bound vesicles, which are known as apoptotic bodies. Hoechst 33342 is a fluorescent DNA-binding dye that allows visualization of chromatin distribution within a cell. Apoptotic nuclei have highly condensed chromatin, often in crescent shapes around the periphery of the nucleus.
A further indication of apoptotic activity, in addition to the assays described above, can be derived from observations of changes in cell architecture evident after induction of apoptosis. Hoechst 33342 is a fluorescent DNA-binding dye that allows visualization of chromatin distribution within a cell.
Cells undergoing apoptosis show several characteristic morphological changes. These changes include cell shrinkage and rounding, and the formation of cytoplasmic blebs on the cell surface. Nuclear material condenses along the edge of the nucleus followed by complete condensation and nuclear fragmentation (Hacker, G., 2000). […]

Segetoside H [PC1448]
Caspase 9 positive cells ([1]; 7 μM PC1448, 20 hr): 47.7%
Caspase 9 positive cells ([1]; 10 μM PC1448, 20 hr): 73.9%
Caspase 9 positive cells ([1]; 14 μM PC1448, 10 hr): 37.3%
Caspase 9 positive cells ([1]; 14 μM PC1448, 15 hr): 44.2%
Caspase 9 positive cells ([1]; 14 μM PC1448, 20 hr): 48.0%
Increase in cells with caspase 9 activity vs untreated ([1]; 14 μM PC1448, 20 hr (concentration range)): six fold
Caspase 9 positive cells ([1]; 14 μM PC1448, 20 hr (concentration series)): 75.3%
Increase in cells showing caspase 9 activity vs untreated ([1]; 14 μM PC1448, 20 hr (time course)): six fold
Caspase 9 positive cells ([1]; 14 μM PC1448, 40 hr): 29.4%
Caspase 9 positive cells ([1]; 17 μM PC1448, 20 hr): 65.6%
Change in Caspase 9 positive cells (in words) ([2]; 14 μM PC1448, 10 to 48 hr): No increase in Caspase 9 positive cells
Caspase 9 positive cells ([2]; 14 μM PC1448, 10 hr): 15.9%
Caspase 9 positive cells ([2]; 14 μM PC1448, 24 hr): 10.6%
Caspase 9 positive cells ([2]; 14 μM PC1448, 48 hr): 9.5%
Induction of apoptosis (in words, FIG. 8) [3]: induces apoptosis
Nuclear morphology after Hoechst 33342 staining (in words, FIG. 4) [4]: nuclear changes characteristic of apoptotic cells

From US20110230430A1, “SAPONIN EXTRACT FROM SAPONARIA SPP. AND USES THEREOF” (NATIONAL RESEARCH COUNCIL OF CANADA, priority 2008, published 2011)
